Results published in article PMC12389534, “Unlocking Therapeutic Potential of Novel Thieno-Oxazepine Hybrids as Multi-Target Inhibitors of AChE/BChE and Evaluation Against Alzheimer’s Disease: In Vivo, In Vitro, Histopathological, and Docking Studies” (Pharmaceuticals, 2025).

Legend:
[1] = test system: Wnt3a; test: Brain Wnt3a level; type: in vivo, rat; details: AlCl3-induced AD rats; for Wnt3a (ng/g Tissue): mean ± SE, n = 6
Experimental: (§1) The brain tissues of the rats were removed and rigorously washed in isotonic saline 24 h after they were euthanized following the last behavioral test. For histological investigation, four brains per group were preserved for the whole night in 10% neutral buffered formalin. The remaining six brains were split into two sections each. In order to create a 10% homogenate (w/v), the first component was instantaneously homogenized using an ice-cold solution that included 300 mM sucrose and 50 mM Tris-HCl (pH 7.4). The homogenate was centrifuged at 1800× g for 10 min at 4 °C for biochemical tests, and the supernatant was thereafter kept at −20 °C. The second portion was set aside for use in RT-PCR analysis at −80 °C [94].
(§2) See Supplementary Information.

[2] = molecular target: T1, BChE (Homo sapiens, UniProt P06276); test: biochemical; details: for IC50: fluorescence kit, triplicate; for Selectivity Index BChE/AChE: ratio of IC50 BChE to IC50 AChE, <1 = preferential BChE inhibition
T1 construct: purchased Invitrogen EIABCHEF
T1 sequence (P06276 29-602): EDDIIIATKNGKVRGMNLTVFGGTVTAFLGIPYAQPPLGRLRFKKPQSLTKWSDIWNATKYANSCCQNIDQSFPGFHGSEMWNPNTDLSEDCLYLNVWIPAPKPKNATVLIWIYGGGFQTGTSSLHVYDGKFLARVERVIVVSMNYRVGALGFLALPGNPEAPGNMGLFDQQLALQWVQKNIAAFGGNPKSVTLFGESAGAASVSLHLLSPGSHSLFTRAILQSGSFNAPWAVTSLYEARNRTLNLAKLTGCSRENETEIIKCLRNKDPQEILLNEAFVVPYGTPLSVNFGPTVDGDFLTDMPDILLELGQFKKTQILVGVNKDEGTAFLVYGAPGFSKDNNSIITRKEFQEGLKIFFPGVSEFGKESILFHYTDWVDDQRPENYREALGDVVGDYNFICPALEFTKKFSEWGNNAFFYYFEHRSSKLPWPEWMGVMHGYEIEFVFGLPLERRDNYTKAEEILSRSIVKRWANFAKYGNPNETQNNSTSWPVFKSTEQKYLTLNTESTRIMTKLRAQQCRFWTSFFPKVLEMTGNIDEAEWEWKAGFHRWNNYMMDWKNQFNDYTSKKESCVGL
Experimental: Using an Invitrogen BChE test kit (Catalog #EIABCHEF), the assay was performed in compliance with the supplier’s instructions. The study was conducted using black 96-well plates. […] Each well was then filled with 50 μL of the reaction mixture, which consisted of fluorescence detection reagent and butyrylthiocholine iodide in assay buffer. The plate was then left to incubate for 20 min at room temperature. Finally, excitation at 390 nm was used to observe emission at 510 nm using a microplate reader. Background fluorescence was further eliminated for each data point.

[3] = test system: Amyloid-β; test: Brain amyloid-β level (ELISA); type: in vivo, rat; parameters: reduction of β-amyloid levels: concentration or dose not given beside the values; details: AlCl3-induced AD rats; for Amyloid-β (ng/g Tissue): brain, mean ± SE, n = 6
Experimental: as §1, §2

[4] = test system: SOD; test: Brain SOD activity (colorimetric); type: in vivo, rat; details: brain tissue, AlCl3-induced AD rats; mean ± SE, n = 6
Experimental: as §1
The SOD enzyme activity was estimated using the Marklund et al. method, which is founded on the enzyme’s capacity to decrease the nitro blue tetrazolium dye at a wavelength of 540 nm. To evaluate the TAC, a colorimetric approach was employed to estimate the amount of hydrogen peroxide that remains after 3,5-dichloro-2-hydroxybenzene sulphonate is converted to a colored product at 660 nm.

[5] = test system: DA; test: Brain DA level (fluorometric); type: in vivo, rat; details: AlCl3-induced AD rats; for DA (ng/g Tissue): brain tissue, mean ± SE, n = 6
Experimental: as §1
(§3) Brain monoamine levels were promptly assessed following the rats’ euthanasia to prevent changes in the substance’s concentration. Dopamine (DA), norepinephrine (NE), and serotonin (5-HT) fluorometric tests were conducted on brain tissue homogenate using the Ciarlone method. […] The concentrations were articulated as nanograms per gram of fresh tissue using the fluorescence of reference solutions [95].

[6] = test system: TNF-α; test: Brain TNF-α level (ELISA); type: in vivo, rat; details: AlCl3-induced AD rats; for TNF-α (pg/g Tissue): mean ± SE, n = 6
Experimental: as §1, with “[94]. […]” for “[94].”

[7] = test system: TLR4; test: TLR4 mRNA expression (RT-qPCR); type: in vivo, rat; parameters: reduction of TLR4 mRNA expression: concentration or dose not given beside the values; details: AlCl3-induced AD rats; for TLR4: mRNA expression level, mean ± SE, n = 6
Experimental: as §1, §2

[8] = test system: NE; test: Brain NE level (fluorometric); type: in vivo, rat; details: AlCl3-induced AD rats; for NE (nmol/g Tissue): brain tissue, mean ± SE, n = 6
Experimental: as §1, §3

[9] = test system: BAX; test: BAX gene expression (RT-qPCR); type: in vivo, rat; details: AlCl3-induced AD rats; for BAX: gene expression, mean ± SE, n = 6
Experimental: as §1, §2

[10] = molecular target: T2, AChE (Homo sapiens, UniProt P22303); test: biochemical; details: colorimetric kit, 412 nm
T2 construct: purchased BioVision K197-100
T2 sequence (P22303 32-614): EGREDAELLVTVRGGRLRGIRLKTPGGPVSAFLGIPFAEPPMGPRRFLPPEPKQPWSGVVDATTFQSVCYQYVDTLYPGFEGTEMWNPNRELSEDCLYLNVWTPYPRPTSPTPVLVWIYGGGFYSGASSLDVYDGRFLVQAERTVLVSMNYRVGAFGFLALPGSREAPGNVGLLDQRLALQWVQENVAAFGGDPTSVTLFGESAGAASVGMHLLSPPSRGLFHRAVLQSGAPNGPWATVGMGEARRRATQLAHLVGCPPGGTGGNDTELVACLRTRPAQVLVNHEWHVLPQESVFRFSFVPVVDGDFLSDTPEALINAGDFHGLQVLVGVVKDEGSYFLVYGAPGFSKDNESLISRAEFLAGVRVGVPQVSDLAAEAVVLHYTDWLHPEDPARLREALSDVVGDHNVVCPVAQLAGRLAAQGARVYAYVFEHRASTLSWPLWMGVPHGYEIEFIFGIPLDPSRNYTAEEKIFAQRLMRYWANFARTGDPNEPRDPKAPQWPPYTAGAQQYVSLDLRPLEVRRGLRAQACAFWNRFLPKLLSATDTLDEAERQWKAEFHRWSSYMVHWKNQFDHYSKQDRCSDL
Experimental: All newly created compounds were subjected to an AChE enzyme inhibitory screening. This was performed with the Colorimetric AChE Inhibitor Screening Kit (BioVision Catalog # K197-100). The 96-well assay kit provides a rapid, simple, and reliable way to screen for AChE inhibitors in large quantities. […] A completely transparent 96-well plate with a flat bottom was loaded with 10 µL of test inhibitors that were diluted (20×). […] A measure of 10 μL of diluted AChE was applied to each well that contained compounds, inhibitor control, and solvent control. […] Measures of 25 μL of AChE assay buffer, 5 μL of probe mix, and 10 μL of diluted AChE substrate were mixed to create the reaction mix. The reaction mix was mixed with the compound, enzyme control, and inhibitor control. […] The IC50 was calculated using nonlinear regression analysis using the response–concentration (log) curve.

[11] = test system: AChE; type: in vivo; parameters: reduction in AChE levels: concentration or dose not given beside the values; details: AlCl3-induced AD rats; for AChE (ng/g Tissue): brain tissue, mean ± SE, n = 6; for reduction in AChE levels: brain
[12] = test system: MDA; test: Brain MDA content (thiobarbituric acid method); type: in vivo, rat; parameters: reduction in MDA brain content: concentration or dose not given beside the values; details: AlCl3-induced AD rats; for MDA (nmol/g Tissue): brain tissue, mean ± SE, n = 6
[13] = test system: β-catenin; test: Brain β-catenin level; type: in vivo, rat; details: AlCl3-induced AD rats; for β-Catenin (ng/L): mean ± SE, n = 6
Experimental: as §1, §2

[14] = test system: IL-1β; test: Brain IL-1β level (ELISA); type: in vivo, rat; parameters: reduction in IL-1β levels: concentration or dose not given beside the values; details: AlCl3-induced AD rats; for IL-β (pg/g Tissue): mean ± SE, n = 6
Experimental: as §1, with “[94]. […]” for “[94].”

[15] = test system: AlCl3-induced AD rat model; test: Y-maze SAP test in AlCl3-induced AD rats; type: in vivo; details: for SAP%: mean ± SE, n = 6
Experimental: All procedures were conducted conforming to the applicable National Institutes of Health standards and regulations for the Care and Use of Laboratory Animals. In this experiment, adult male Dawley rats in excellent condition weighing between 300 and 320 g were used. The animals were acquired from the Nile Company for Pharmaceuticals and Chemical Industries (Cairo, Egypt). They were placed in a controlled laboratory setting with unrestricted access to water, a temperature range of 24 to 26 °C, and 12 h a light–dark cycle. Three rats per cage were housed in polycarbonate cages that were individually packed with paper and encased with stainless steel wire.
One kind of short-term memory that SAP can represent is spatial working memory. Three arms, designated A, B, or C, were employed in a black hardwood Y-maze with a symmetrical triangular core space. Rats were briefly positioned at the edge of one arm and given 8 min to freely navigate around the maze. When the rat’s rear paws were fully inside the arm, the entries were counted. The following formula was used to determine SAP based on the total number of arm entries and alternations: SAP (%) = [number of alternations/(total arm entries − 2)] × 100 [94].

[16] = test system: GSK3β; test: GSK3β gene expression (RT-qPCR); type: in vivo, rat; details: AlCl3-induced AD rats; for GSK3β: gene expression, mean ± SE, n = 6
Experimental: as §1, §2

| SMILES | elevation of Wnt3a levels [1] | Wnt3a (ng/g Tissue) [1] | IC50 [2] | Selectivity Index BChE/AChE [2] | reduction of β-amyloid levels [3] | Amyloid-β (ng/g Tissue) [3] | SOD(U/g) [4] | elevation of DA levels [5] | DA (ng/g Tissue) [5] | decline in TNF-α levels [6] | TNF-α (pg/g Tissue) [6] | reduction of TLR4 mRNA expression [7] | TLR4 [7] | rise in the level of NE [8] | NE (nmol/g Tissue) [8] | BAX [9] | IC50 [10] | AChE (ng/g Tissue) [11] | reduction in AChE levels [11] | reduction in MDA brain content [12] | further results |
| --- | --- | --- | --- | --- | --- | --- | --- | --- | --- | --- | --- | --- | --- | --- | --- | --- | --- | --- | --- | --- | --- |
| N#Cc1ccc(N2CC(=O)Oc3sc4c(c3C2=O)CCCCC4)cc1 [Compound 13, 4-(2,5-Dioxo-2,3,7,8,9,10-hexahydro-6H-cyclohepta[4,5]thieno[3,2-f][1,4]oxazepin-4(5H)-yl)benzonitrile] | 7 fold | 0.84 ± 0.01 ^abc ng/g Tissue | 4.22 ± 0.14 µM | 0.84 | 67.6% | 9.04 ± 0.9 ^abc ng/g Tissue | 2.53 ± 0.25 ^abc U/g | 4.1 fold | 48.65 ± 2.3 ^abc ng/g Tissue | 70.2% | 52.38 ± 0.59 ^abc pg/g Tissue | 57.5% | 4.09 ± 0.27 ^abc | 2.4 times | 449.6 ± 2.3 ^abc nmol/g Tissue | 5.80 ± 0.120 ^abc | 5.04 ± 0.17 µM | 24.35 ± 0.8 ^abc ng/g Tissue | 63.8% | 54.7% | MDA (nmol/g Tissue) [12]: 52.58 ± 0.08 ^abc nmol/g Tissue; elevation of β-catenin levels [13]: 7.7 fold; β-Catenin (ng/L) [13]: 11.67 ± 0.13 ^abc ng/L; reduction in IL-1β levels [14]: 61.3%; IL-β (pg/g Tissue) [14]: 45.79 ± 1.34 ^abc pg/g Tissue; increase in SAP% [15]: ~35%; SAP% [15]: 82.67 ± 1.28 ^abc %; GSK3β [16]: 3.63 ± 0.04 ^abc |
| CCOc1ccc(N2CC(=O)Oc3sc4c(c3C2=O)CCCCC4)cc1 [Compound 14, 4-(4-Ethoxyphenyl)-3,4,7,8,9,10-hexahydro-6H-cyclohepta[4,5]thieno[3,2-f][1,4]oxazepine-2,5-dione] | 4 fold | 0.66 ± 0.02 ^abc ng/g Tissue | 2.93 ± 0.1 µM | 7.50 | 58.4% | 11.66 ± 0.17 ^abc ng/g Tissue | 2.38 ± 0.78 ^abc U/g | 4.3 fold | 51.88 ± 2.66 ^abc ng/g Tissue | 58.4% | 73.21 ± 0.58 ^abc pg/g Tissue | 62.6% | 3.60 ± 0.12 ^abc | 2.1 times | 386.7 ± 2.66 ^abc nmol/g Tissue | 5.49 ± 0.100 ^abc | 0.39 ± 0.01 µM | 19.4 ± 0.39 ^abc ng/g Tissue | 71.2% | 59% | MDA (nmol/g Tissue) [12]: 47.6 ± 0.12 ^abc nmol/g Tissue; elevation of β-catenin levels [13]: 5.3 fold; β-Catenin (ng/L) [13]: 8.4 ± 0.09 ^abc ng/L; reduction in IL-1β levels [14]: 49.3%; IL-β (pg/g Tissue) [14]: 59.92 ± 0.98 ^abc pg/g Tissue; SAP% [15]: 77.5 ± 2.11 ^abc %; GSK3β [16]: 3.13 ± 0.07 ^abc |
| O=C1CN(c2ccc(O)cc2)C(=O)c2c(sc3c2CCCCC3)O1 [Compound 15, 4-(4-Hydroxyphenyl)-3,4,7,8,9,10-hexahydro-6H-cyclohepta[4,5]thieno[3,2-f][1,4]oxa-zepine-2,5-dione] | 7.3 fold | 0.88 ± 0.01 ^abc ng/g Tissue | 0.7 ± 0.02 µM | 0.44 | 73.2% | 7.46 ± 0.9 ^abc ng/g Tissue | 2.56 ± 0.54 ^abc U/g | 3.8 fold | 44.92 ± 2.85 ^abc ng/g Tissue | 74.6% | 44.6 ± 0.6 ^abc pg/g Tissue | 52.5% | 4.57 ± 0.09 ^abc | 2.7 times | 499.8 ± 2.85 ^abc nmol/g Tissue | 4.47 ± 0.040 ^abc | 1.59 ± 0.06 µM | 25.73 ± 0.37 ^abc ng/g Tissue | 61.8% | 45.2% | MDA (nmol/g Tissue) [12]: 63.68 ± 0.12 ^abc nmol/g Tissue; elevation of β-catenin levels [13]: 8.8 fold; β-Catenin (ng/L) [13]: 13.86 ± 0.11 ^abc ng/L; reduction in IL-1β levels [14]: 61.1%; IL-β (pg/g Tissue) [14]: 45.66 ± 1.03 ^abc pg/g Tissue; increase in SAP% [15]: ~34.8%; SAP% [15]: 82.5 ± 0.89 ^abc %; reduction of GSK3β gene expression [16]: 53.7%; GSK3β [16]: 4.72 ± 0.05 ^abc |
| COc1ccc(N2CC(=O)Oc3sc4c(c3C2=O)CCCCC4)cc1 [Compound 16, 4-(4-Methoxyphenyl)-3,4,7,8,9,10-hexahydro-6H-cyclohepta[4,5]thieno[3,2-f][1,4]oxa-zepine-2,5-dione] | 5.5 fold | 0.52 ± 0.01 ^abc ng/g Tissue | 5.23 ± 0.18 µM | 6.89 | 55.4% | 12.44 ± 0.14 ^abc ng/g Tissue | 2.92 ± 0.20 ^abc U/g | 4.4 fold | 52.96 ± 1.52 ^abc ng/g Tissue | 51.6% | 85.17 ± 0.46 ^abc pg/g Tissue | 53.9% | 4.43 ± 0.08 ^abc | 2 times | 366.4 ± 1.52 ^abc nmol/g Tissue | 6.14 ± 0.090 ^abc | 0.76 ± 0.03 µM | 16.83 ± 0.29 ^abc ng/g Tissue | 75% | 72.8% | suppression of BAX gene expression [9]: 36.5%; MDA (nmol/g Tissue) [12]: 31.63 ± 0.05 ^abc nmol/g Tissue; elevation of β-catenin levels [13]: 4.6 fold; β-Catenin (ng/L) [13]: 7.34 ± 0.12 ^abc ng/L; reduction in IL-1β levels [14]: 55.2%; IL-β (pg/g Tissue) [14]: 53.04 ± 0.61 ^abc pg/g Tissue; SAP% [15]: 71.67 ± 1.15 ^abc %; GSK3β [16]: 2.18 ± 0.10 ^abc |
